Experimental data from PubChem BioAssay AID1259411 (Chemical Carcinogenesis Research Information System (CCRIS), 2018).
The source made the active and inactive calls. No rule for the calls is given here.

Tested on: rodent carcinogenicity bioassays, tumor incidence
Assay: CCRIS carcinogenicity studies
How it was run: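 Archive of carcinogenicity, mutagenicity, tumor promotion and tumor inhibition results drawn from journals, NCI reports and other sources, expert-reviewed; covers 1985-2011 and is no longer updated.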

For COCC(=O)N(c1c(C)cccc1C)C(C)C(=O)OC (configuration not stated), the carcinogen call (Species: Mouse, Strain/Sex: ICI Alderly Park (Swiss strain origin)/Female (60/Group), Route: Oral, Dose: 0, 50, 250, 1250 ppm of 93.8-95.2% metalaxyl in diet for 104 wk, study duration 104 wk, Dose: 0, 50, 250, 1250 ppm of 93.8-95.2% metalaxyl in diet for 104 wk, study duration 104 wk) was “inactive; negative”, the carcinogen call (Species: Mouse, Strain/Sex: ICI Alderly Park (Swiss strain origin)/Male (60/Group), Route: Oral, Dose: 0, 50, 250, 1250 ppm of 93.8-95.2% metalaxyl in diet for 104 wk, study duration 104 wk, Dose: 0, 50, 250, 1250 ppm of 93.8-95.2% metalaxyl in diet for 104 wk, study duration 104 wk) was “inactive; negative” and the carcinogen call (Species: Rat, Strain/Sex: CD (Sprague-Dawley derived)/Female (70/Group), Route: Oral, Dose: 0, 50, 250, 1250 ppm of 93% metalaxyl in diet for 105 wk, study duration 105 wk, Dose: 0, 50, 250, 1250 ppm of 93% metalaxyl in diet for 105 wk, study duration 105 wk, Tumor Site: Type of Lesion: Thyroid: follicular cell adenoma) was “active; positive”. For the same compound, the carcinogen call (Species: Rat, Strain/Sex: CD (Sprague-Dawley derived)/Male (70/Group), Route: Oral, Dose: 0, 50, 250, 1250 ppm of 93% metalaxyl in diet for 105 wk, study duration 105 wk, Dose: 0, 50, 250, 1250 ppm of 93% metalaxyl in diet for 105 wk, study duration 105 wk) was “inactive; negative”.
With N[C@@H](Cc1ccc(N(CCCl)CCCl)cc1)C(=O)O the carcinogen call (Species: HUMAN, Route: ORAL, Tumor Site: Type of Lesion: HEMATOPOIETIC SYSTEM (LEUKEMIA), LYMPHATIC SYSTEM: LYMPHOMA) was “active; positive”, the carcinogen call (Species: MOUSE, Strain/Sex: STRAIN-A/MALE,FEMALE, Route: INTRAPERITONEAL, Dose: 0.27, 1.07, 4.27, 17.1 MG/KG IN 12 DOSES OVER 4 WK, Dose: 0.27, 1.07, 4.27, 17.1 MG/KG IN 12 DOSES OVER 4 WK, Tumor Site: Type of Lesion: LUNG: ADENOMA) was “active; positive” and the carcinogen call (Species: MOUSE, Strain/Sex: SWISS/FEMALE, Route: INTRAPERITONEAL, Dose: 0.75, 1.5 MG/KG 3/WK FOR 6 MO, Tumor Site: Type of Lesion: LUNG: ADENOMA) was “active; positive”. The carcinogen call (Species: MOUSE, Strain/Sex: SWISS/MALE, Route: INTRAPERITONEAL, Dose: 0.75, 1.5 MG/KG 3/WK FOR 6 MO, Tumor Site: Type of Lesion: LUNG: ADENOMA, LYMPHATIC SYSTEM: LYMPHOSARCOMA) was “active; positive” and the carcinogen call (Species: RAT, Strain/Sex: STRAIN-CD/MALE,FEMALE, Route: INTRAPERITONEAL, Dose: 0.9, 1.8 MG/KG 3/WK FOR 6 MO, Tumor Site: Type of Lesion: PERITONEAL CAVITY: SARCOMA) was “active; positive”.
In the case of C[C@]12CC[C@@H]3c4ccc(OC(=O)Cc5ccc(N(CCCl)CCCl)cc5)cc4CC[C@H]3[C@@H]1CC[C@@H]2OC(=O)Cc1ccc(N(CCCl)CCCl)cc1, the carcinogen call (Species: MOUSE, Strain/Sex: B6C3F1/FEMALE, Route: GAVAGE, Dose: 0, 15, 30 MG/KG 3/WK FOR 52 WKS, Dose: 0, 15, 30 MG/KG 3/WK FOR 52 WKS, Tumor Site: Type of Lesion: LUNG: ALVEOLAR/BRONCHIOLAR ADENOMA OR CARCINOMA, LYMPHATIC SYSTEM: LYMPHOMA, MYOCARDIUM: SARCOMA, STOMACH, Tumor Site: Type of Lesion: LUNG: ALVEOLAR/BRONCHIOLAR ADENOMA OR CARCINOMA, LYMPHATIC SYSTEM: LYMPHOMA, MYOCARDIUM: SARCOMA, STOMACH) was “active; positive”, the carcinogen call (Species: MOUSE, Strain/Sex: B6C3F1/MALE, Route: GAVAGE, Dose: 0, 15, 30 MG/KG 3/WK FOR 52 WKS, Dose: 0, 15, 30 MG/KG 3/WK FOR 52 WKS, Tumor Site: Type of Lesion: LUNG: ALVEOLAR/BRONCHIOLAR ADENOMA OR CARCINOMA, HEMATOPOIETIC SYSTEM (LEUKEMIA): LYMPHOCYTIC LEUKEMIA, LYMPHATIC SYSTEM, Tumor Site: Type of Lesion: LUNG: ALVEOLAR/BRONCHIOLAR ADENOMA OR CARCINOMA, HEMATOPOIETIC SYSTEM (LEUKEMIA): LYMPHOCYTIC LEUKEMIA, LYMPHATIC SYSTEM) was “active; positive” and the carcinogen call (Species: RAT, Strain/Sex: SPRAGUE-DAWLEY/FEMALE, Route: GAVAGE, Dose: 0, 0.62, 1.25 MG/KG IN 0.05% POLYSORB 80 IN PHOS BUFF SALINE 3/WK FOR 52 WK, Dose: 0, 0.62, 1.25 MG/KG IN 0.05% POLYSORB 80 IN PHOS BUFF SALINE 3/WK FOR 52 WK) was “inactive; negative”. The carcinogen call (Species: RAT, Strain/Sex: SPRAGUE-DAWLEY/MALE, Route: GAVAGE, Dose: 0, 0.62, 1.25 MG/KG IN 0.05% POLYSORB 80 IN PHOS BUFF SALINE 3/WK FOR 52 WK, Dose: 0, 0.62, 1.25 MG/KG IN 0.05% POLYSORB 80 IN PHOS BUFF SALINE 3/WK FOR 52 WK) was “inactive; negative”.
In the case of ClCC1CO1 (configuration not stated), the carcinogen call (Species: MOUSE, Route: DERMAL, Tumor Site: Type of Lesion: INTEGUMENTARY SYSTEM (SKIN)) was “active; positive”, the carcinogen call (Species: MOUSE, Route: SUBCUTANEOUS, Tumor Site: Type of Lesion: INJECTION SITE) was “active; positive” and the carcinogen call (Species: RAT, Strain/Sex: WISTAR/FEMALE, Route: GAVAGE, Dose: 0, 2, 10 MG/KG IN WATER 5 D/WK FOR 104 WK (STUDY DURATION: 24 MO), Dose: 0, 2, 10 MG/KG IN WATER 5 D/WK FOR 104 WK (STUDY DURATION: 24 MO), Tumor Site: Type of Lesion: FORESTOMACH: SQUAMOUS CELL CARCINOMA) was “active; positive”. The carcinogen call (Species: RAT, Strain/Sex: WISTAR/MALE, Route: GAVAGE, Dose: 0, 2, 10 MG/KG IN WATER 5 D/WK FOR 104 WK (STUDY DURATION: 24 MO), Dose: 0, 2, 10 MG/KG IN WATER 5 D/WK FOR 104 WK (STUDY DURATION: 24 MO), Tumor Site: Type of Lesion: FORESTOMACH: SQUAMOUS CELL CARCINOMA) was “active; positive”.
ClC1=C(Cl)[C@]2(Cl)[C@H]3[C@H]([C@@H]4C=C[C@H]3C4)[C@@]1(Cl)C2(Cl)Cl was tested, and the carcinogen call (Species: MOUSE, Strain/Sex: B6C3F1/FEMALE, Route: ORAL, Dose: 0, 3, 6 PPM IN DIET FOR 80 WK (STUDY DURATION: 112-113 WK), Dose: 0, 3, 6 PPM IN DIET FOR 80 WK (STUDY DURATION: 112-113 WK)) was “inactive; negative”, the carcinogen call (Species: MOUSE, Strain/Sex: B6C3F1/MALE, Route: ORAL, Dose: 0, 4, 8 PPM IN DIET FOR 74 WK (STUDY DURATION: 111-112 WK), Dose: 0, 4, 8 PPM IN DIET FOR 74 WK (STUDY DURATION: 111-112 WK), Tumor Site: Type of Lesion: LIVER: HEPATOCELLULAR CARCINOMA) was “active; positive” and the carcinogen call (Species: RAT, Strain/Sex: OSBORNE-MENDEL/FEMALE, Route: ORAL, Dose: 0, 30, 60 PPM IN DIET FOR 80 WK (STUDY DURATION: 112-113 WK), Dose: 0, 30, 60 PPM IN DIET FOR 80 WK (STUDY DURATION: 112-113 WK), Tumor Site: Type of Lesion: THYROID GLAND: FOLLICULAR CELL ADENOMA OR CARCINOMA, ADRENAL GLAND: CORTICAL ADENOMA) was “equivocal”. For the same compound, the carcinogen call (Species: RAT, Strain/Sex: OSBORNE-MENDEL/MALE, Route: ORAL, Dose: 0, 30, 60 PPM IN DIET FOR 74 WK (STUDY DURATION: 111-112 WK), Dose: 0, 30, 60 PPM IN DIET FOR 74 WK (STUDY DURATION: 111-112 WK), Tumor Site: Type of Lesion: THYROID GLAND: FOLLICULAR CELL ADENOMA OR CARCINOMA) was “equivocal”.
With CS(=O)(=O)OCCCNCCCOS(C)(=O)=O the carcinogen call (Species: MOUSE, Strain/Sex: B6C3F1/FEMALE, Route: INTRAPERITONEAL, Dose: 0, 20, 40 MG/KG 3/WK FOR 52 WK (STUDY DURATION: 52 WK), Dose: 0, 20, 40 MG/KG 3/WK FOR 52 WK (STUDY DURATION: 52 WK), Tumor Site: Type of Lesion: SUBCUTANEOUS TISSUE: SQUAMOUS CELL CARCINOMA, HEMATOPOIETIC SYSTEM: MALIGNANT LYMPHOMA) was “equivocal”, the carcinogen call (Species: MOUSE, Strain/Sex: B6C3F1/MALE, Route: INTRAPERITONEAL, Dose: 0, 20, 40 MG/KG 3/WK FOR 52 WK (STUDY DURATION: 52 WK), Dose: 0, 20, 40 MG/KG 3/WK FOR 52 WK (STUDY DURATION: 52 WK), Tumor Site: Type of Lesion: SUBCUTANEOUS TISSUE: SQUAMOUS CELL CARCINOMA, HEMATOPOIETIC SYSTEM: MALIGNANT LYMPHOMA) was “equivocal” and the carcinogen call (Species: RAT, Strain/Sex: SPRAGUE-DAWLEY/FEMALE, Route: INTRAPERITONEAL, Dose: 0, 12 MG/KG 3/WK FOR 52 WK, 24 MG/KG 3/WK FOR 34 WK, 48 MG/KG 3/WK FOR 27 WK (STUDY DURATION: 27-52 WK), Dose: 0, 12 MG/KG 3/WK FOR 52 WK, 24 MG/KG 3/WK FOR 34 WK, 48 MG/KG 3/WK FOR 27 WK (STUDY DURATION: 27-52 WK), Tumor Site: Type of Lesion: PERITONEUM: SARCOMA, FIBROMA OR FIBROSARCOMA) was “equivocal”. For the same compound, the carcinogen call (Species: RAT, Strain/Sex: SPRAGUE-DAWLEY/MALE, Route: INTRAPERITONEAL, Dose: 0, 12 MG/KG 3/WK FOR 52 WK, 24 MG/KG 3/WK FOR 34 WK, 48 MG/KG 3/WK FOR 23 WK (STUDY DURATION: 23-52 WK), Dose: 0, 12 MG/KG 3/WK FOR 52 WK, 24 MG/KG 3/WK FOR 34 WK, 48 MG/KG 3/WK FOR 23 WK (STUDY DURATION: 23-52 WK), Tumor Site: Type of Lesion: PERITONEUM: SARCOMA, FIBROMA OR FIBROSARCOMA) was “equivocal”.
Nc1cc([N+](=O)[O-])ccc1NC(CO)(CO)CO was tested, and the carcinogen call (Species: RAT, Strain/Sex: SPRAGUE-DAWLEY/FEMALE, Route: ORAL, Dose: 0, 0.2, 0.6, 2% IN DIET OF MATED AND NONMATED RATS FOR UP TO 6 MO (STUDY DURATION: 6 MO), Dose: 0, 0.2, 0.6, 2% IN DIET OF MATED AND NONMATED RATS FOR UP TO 6 MO (STUDY DURATION: 6 MO), Tumor Site: Type of Lesion: MAMMARY GLAND: TUMOR) was “active; positive” and the carcinogen call (Species: RAT, Strain/Sex: SPRAGUE-DAWLEY/MALE, Route: ORAL, Dose: 0, 0.2, 0.6, 2% IN DIET FOR UP TO 6 MO (STUDY DURATION: 6 MO), Dose: 0, 0.2, 0.6, 2% IN DIET FOR UP TO 6 MO (STUDY DURATION: 6 MO)) was “inactive; negative”.
